Data from patent US20200263231A1, “Fluorogenic dyes for high sensitivity DNA detection” (LIFE TECHNOLOGIES CORPORATION, priority 2016, published 2020).

Assays:
[1] = UV/VIS absorption spectra; type: physicochemical; conditions: 10 μM compound in 50 mM potassium phosphate buffer (pH 7.0)
Procedure: The UV/VIS absorption spectra were obtained with 10 μM compound solution in 50 mM potassium phosphate buffer (pH 7.0) in a final volume of 3 mL. Measurements were carried out using a Lambda 245 spectrophotometer from Perkin Elmer.

calf thymus DNA = test: Fluorescence emission and enhancement of compounds bound to calf thymus DNA; type: binding; conditions: 0.8 μM compound with 500 ng/ml calf thymus DNA in TE buffer; for Emission Max: excited at 488 nm; for Fluorescence Enhancement: emission area 500-715 nm compared to compound 1, defined as 1000-fold
Procedure: Compounds 1-65 were prepared and their fluorescence absorption and emission characteristics were measured. Intrinsic fluorescence of the compounds only (without DNA) was negligible. Emission spectra for the compounds bound to dsDNA were obtained by incubating 0.8 μM compound with 500 ng/ml calf thymus DNA in TE buffer (10 mM Tris-HCl, pH 7.5, 1 mM EDTA) in a final volume of 3 ml. Measurements were made using PerkinElmer LS 55 (F-11) Fluorescence spectrometer. Samples were excited at 488 nm and fluorescence emission was measured with emission slit widths of 2.5 nm. Absorption maxima were determined according to standard techniques.
Fluorescence enhancement measurements of the compounds were obtained by incubating 0.8 μM compound with 500 ng/ml calf thymus DNA with compounds at a final concentration of 0.8 μM in TE buffer. Compound 1 was used as an internal standard to control for variability (e.g., in excitation light intensity). The area-under-curve of fluorescence emission spectra from 500 nm to 715 nm was calculated, and compared to that of compound 1, which was defined as having 1000-fold fluorescence enhancement relative to fluorescence of the compound alone.

Row | SMILES | Absorbance Max [1] [nm] | Emission Max (calf thymus DNA) [nm] | Fluorescence Enhancement (calf thymus DNA) [fold]
1 | CCN(CCN(C)C)C1=C/C(=C/c2sc3ccccc3[n+]2C)c2ccccc2N1c1ccccc1.[Cl-] [Compound 28] | 504 | 525 | 672
2 | CCN(CC[N+](C)(C)C)C1=C/C(=C/c2sc3ccccc3[n+]2C)c2ccc(OC)cc2N1c1ccccc1.[I-].[I-] [Compound 56] | 499 | 523 | 894
3 | CCCN(CCC[N+](C)(C)CCO)C1=C/C(=C/c2sc3ccccc3[n+]2C)c2ccccc2N1c1ccccc1.[I-].[I-] [Compound 5] | 501 | 523 | 954
4 | CCCCN(CCC[N+](C)(C)Cc1cccc(OC)c1)C1=C/C(=C/c2sc3ccccc3[n+]2C)c2ccccc2N1c1ccccc1.[Br-].[I-] [Compound 14] | 497 | 526 | 907
5 | CCN(CCC[N+](C)(C)C)C1=CC(=Cc2sc3ccccc3[n+]2C)c2ccc(OC)cc2N1c1ccccc1.[I-].[I-] [Compound 49] | 490 | 520 | 1035
6 | C[n+]1c(/C=C2/C=C(n3ccnc3)N(c3ccccc3)c3ccccc32)sc2ccccc21.[I-] [Compound 61] | 514 | 540 | 26
7 | CCC[N+](C)(C)CCN(CC)C1=C/C(=C/c2sc3ccccc3[n+]2C)c2ccc(OC)cc2N1c1ccccc1.[I-].[I-] [Compound 58] | 496 | 521 | 874
8 | C[n+]1ccn(C2=C/C(=C/c3sc4ccccc4[n+]3C)c3ccccc3N2c2ccccc2)c1.[I-].[I-] [Compound 62] | 519 | – | 0.3
9 | CCCN(CCC[N+](C)(C)CC)C1=C/C(=C/c2sc3ccccc3[n+]2C)c2ccccc2N1c1ccccc1.[Cl-].[I-] [Compound 3] | 501 | 524 | 997
10 | C[n+]1c(/C=C2/C=C(n3cnc4ccccc43)N(c3ccccc3)c3ccccc32)sc2ccccc21.[Cl-] [Compound 63] | 518 | 543 | 42
11 | CN(CCC[N+](C)(C)C)C1=C/C(=C/c2sc3ccccc3[n+]2C)c2ccccc2N1c1ccccc1.[I-].[I-] [Compound 22] | 497 | 520 | 639
12 | CCCCN(CCCN(C)C)C1=C/C(=C/c2sc3ccccc3[n+]2C)c2ccccc2N1c1ccccc1.[I-] [Compound 8] | 495 | 525 | 946
13 | CCCCN(CCC[N+](C)(C)Cc1ccccc1)C1=C/C(=C/c2sc3ccccc3[n+]2C)c2ccccc2N1c1ccccc1.[Br-].[I-] [Compound 13] | 496 | 523 | 922
14 | CCCN(CCC[N+](C)(C)CCC)C1=CC(=Cc2sc3ccccc3[n+]2C)c2ccc(OC)cc2N1c1ccccc1.[I-].[I-] [Compound 44] | 494 | 518 | 1101
15 | CCCN(CCCN(C)C)C1=C/C(=C/c2sc3ccccc3[n+]2C)c2ccccc2N1c1ccccc1 [Compound 1, reference compound] | 500 | 523 | 1000
16 | CCC[N+](C)(C)CCCN(CC)C1=CC(=Cc2sc3ccccc3[n+]2C)c2ccc(OC)cc2N1c1ccccc1.[I-].[I-] [Compound 51] | 490 | 520 | 1016
17 | CCN(CC[N+](C)(C)CC)C1=C/C(=C/c2sc3ccccc3[n+]2C)c2ccccc2N1c1ccccc1.[Cl-].[I-] [Compound 30] | 506 | 526 | 638
18 | CCN(CC[N+](C)(C)Cc1ccccc1)C1=C/C(=C/c2sc3ccccc3[n+]2C)c2ccc(OC)cc2N1c1ccccc1.[I-].[I-] [Compound 60] | 500 | 522 | 878
19 | CCN(CCC[N+](C)(C)CC)C1=CC(=Cc2sc3ccccc3[n+]2C)c2ccc(OC)cc2N1c1ccccc1.[I-].[I-] [Compound 50] | 490 | 519 | 1020

The next lines start with results.

Row | Absorbance Max [1] [nm] | Emission Max (calf thymus DNA) [nm] | SMILES | Fluorescence Enhancement (calf thymus DNA) [fold]
20 | 490 | 520 | CCCCN(CCC[N+](C)(C)Cc1cccc(OC)c1)C1=CC(=Cc2sc3ccccc3[n+]2C)c2ccc(OC)cc2N1c1ccccc1.[Br-].[I-] [Compound 40] | 1050
21 | 502 | 523 | CCCN(CCC[N+](C)(C)Cc1ccccc1)C1=C/C(=C\c2sc3ccccc3[n+]2C)c2ccccc2N1c1ccccc1.[Br-].[Cl-] [Compound 6] | 979
22 | 496 | 523 | CCN(CCC[N+](C)(C)CC)C1=C/C(=C/c2sc3ccccc3[n+]2C)c2ccccc2N1c1ccccc1.[I-].[I-] [Compound 17] | 865
23 | 507 | 527 | CCN(CC[N+](C)(C)Cc1ccccc1)C1=C/C(=C/c2sc3ccccc3[n+]2C)c2ccccc2N1c1ccccc1.[Br-].[I-] [Compound 32] | 672
24 | 496 | 525 | CCCCN(CCC[N+](C)(C)C)C1=C/C(=C/c2sc3ccccc3[n+]2C)c2ccccc2N1c1ccccc1.[I-].[I-] [Compound 9] | 908
25 | 497 | 524 | CCN(CCC[N+](C)(C)Cc1ccccc1)C1=C/C(=C/c2sc3ccccc3[n+]2C)c2ccccc2N1c1ccccc1.[Br-].[I-] [Compound 19] | 884
26 | 506 | 527 | CCC[N+](C)(C)CCN(CC)C1=C/C(=C/c2sc3ccccc3[n+]2C)c2ccccc2N1c1ccccc1.[I-].[I-] [Compound 31] | 642
27 | 490 | 517 | CCN(CCC[N+](C)(C)Cc1cccc(OC)c1)C1=CC(=Cc2sc3ccccc3[n+]2C)c2ccc(OC)cc2N1c1ccccc1.[Br-].[I-] [Compound 54] | 1008
28 | 494 | 519 | CCCN(CCC[N+](C)(C)CC)C1=CC(=Cc2sc3ccccc3[n+]2C)c2ccc(OC)cc2N1c1ccccc1.[I-].[I-] [Compound 43] | 1033
29 | 497 | 522 | CCC[N+](C)(C)CCCN(C)C1=C/C(=C/c2sc3ccccc3[n+]2C)c2ccccc2N1c1ccccc1.[I-].[I-] [Compound 24] | 630
30 | 490 | 517 | CCCCN(CCC[N+](C)(C)Cc1ccccc1)C1=CC(=Cc2sc3ccccc3[n+]2C)c2ccc(OC)cc2N1c1ccccc1.[I-].[I-] [Compound 39] | 1080
31 | 496 | 524 | CCN(CCC[N+](C)(C)CCO)C1=C/C(=C/c2sc3ccccc3[n+]2C)c2ccccc2N1c1ccccc1.[I-].[I-] [Compound 18] | 882
32 | 496 | 523 | CCN(CCC[N+](C)(C)C)C1=C/C(=C/c2sc3ccccc3[n+]2C)c2ccccc2N1c1ccccc1.[I-].[I-] [Compound 16] | 863
33 | 495 | 518 | CCCN(CCC[N+](C)(C)Cc1cccc(OC)c1)C1=CC(=Cc2sc3ccccc3[n+]2C)c2ccc(OC)cc2N1c1ccccc1.[Br-].[I-] [Compound 47] | 1038
34 | 498 | 520 | CCN(CC[N+](C)(C)CCO)C1=C/C(=C\c2sc3ccccc3[n+]2C)c2ccc(OC)cc2N1c1ccccc1.[I-].[I-] [Compound 59] | 863
35 | 527 | 530 | C[n+]1c(/C=C2/C=C(CCC[N+](C)(C)C)N(c3ccccc3)c3ccccc32)sc2ccccc21 [Compound 65] | 136
36 | 496 | 526 | CCCCN(CCC[N+](C)(C)CC)C1=C/C(=C/c2sc3ccccc3[n+]2C)c2ccccc2N1c1ccccc1.[I-].[I-] [Compound 10] | 926
37 | 497 | 523 | CCN(CCC[N+](C)(C)Cc1cccc(OC)c1)C1=C/C(=C/c2sc3ccccc3[n+]2C)c2ccccc2N1c1ccccc1.[Br-].[I-] [Compound 20] | 871
